Reference: US20240156861A1, “Cisplatin particles and uses thereof” (CRITITECH, INC., priority 2022, published 2024)

Key:
Assay type in all cases: physicochemical
[1] = Bulk density analysis (modified USP <616> Method I, 10 mL graduated cylinder); details: not tapped
Method: As used herein, the bulk density of the cisplatin particles is the mass of the totality of particles in the composition divided by the total volume they occupy when poured into a graduated cylinder and not tapped. The total volume includes particle volume, inter-particle void volume, and internal pore volume.
Bulk density analysis by modified USP <616>Bulk Density of Powders Method I
Bulk density analyses were conducted using a 10 mL graduated cylinder due to low sample volume. SC1 was the only precipitate measured due to insufficient materials available for analysis from SC2 and SC3. […] Bulk density results can be seen in Table 1.

[2] = Particle Size Distribution (PSD) by laser diffraction, Malvern Mastersizer 3000; details: dispersed in ethyl acetate
Method: Particle Size Distribution (PSD) by Laser Diffraction
Particle size analyses were conducted on a Malvern Mastersizer™ 3000 using the Hydro MV dispersion unit. A non-validated general PSD method/dispersant method was used to analyze the cisplatin samples. The sample preparation procedure performed was as follows:
Weigh 10 to 20 mg of cisplatin into a 30-mL vial, add 20 mL of ethyl acetate. Disperse the sample by vortexing then sonicating the suspension in an ultrasonic bath for 1 minute. Then transfer the sample suspension to the Malvem Hydro MV dispersion unit to obtain obscuration between 5 and 15%.

[3] = Specific Surface Area (SSA) by BET sorptometry
Method: As used herein, the “specific surface area” is the total surface area of the cisplatin particle per unit of cisplatin mass as measured by the Brunauer—Emmett—Teller (“BET”) isotherm (i.e.: the BET SSA). As will be understood by those of skill in the art, the SSA is determined on a per gram basis and takes into account both agglomerated and non-agglomerated cisplatin particles in the composition. The BET specific surface area test procedure is a compendial method included in both the United States Pharmaceopeia and the European Pharmaceopeia. The cisplatin particles have a specific surface area (SSA) of at least 3.5 m^2/g. In various further embodiments, the cisplatin particles have a SSA of at least 4 m^2/g, 5 m^2/g, 6 m^2/g, 7 m^2/g, 8 m^2/g, 9 m^2/g, 10 m^2/g, 11 m^2/g, 12 m^2/g, 13 m^2/g, 14 m^2/g, […] m^2/g, 17 m^2/g, 18 m^2/g, 19 m^2/g 20 m^2/g 21 m^2/g, 22 m^2/g, 23 m^2/g, or 24 m^2/g.
Specific Surface Area (SSA) determination by BET Sorptometry
Surface area analyses were conducted on a Quantachrome NOVAtouch™ LX2 BET Sorptometer. […] Surface area results can be found in Table 1.

With `N.N.[Cl][Pt][Cl]` [Raw, Cisplatin] the “Bulk Density” value [1] was 1.01 g/mL, the “PSD - Mastersizer Dv10” value [2] was 1.72 μm and the “PSD - Mastersizer Dv50” value [2] was 10.9 μm. The “PSD - Mastersizer Dv90” value [2] was 25.9 μm and the “Surface Area” value [3] was 2.44 m^2/g.
